Source: patent US8404708B2, “Dual NK1/NK3 receptor antagonists” (Hoffmann-La Roche Inc., priority 2004, dated 2013)

Experiments:
human NK1 receptor = human NK1 receptor (Homo sapiens, UniProt P25103); assay: NK1 receptor binding, [3H]substance P displacement, CHO cell membranes; conditions: first value of the cell pKi NK1/NK3; human NK1 receptor, [3H]substance P
[1] = target: T1, Recombinant human NK3 (hNK3) receptor (Homo sapiens, UniProt P29371); assay: NK3 receptor binding, [3H]SR142801 displacement, membrane preparations; conditions: second value of the cell pKi NK1/NK3; hNK3 receptor, [3H]SR142801
T1 construct: expressed in transfected cells
T1 sequence (P29371 1-465): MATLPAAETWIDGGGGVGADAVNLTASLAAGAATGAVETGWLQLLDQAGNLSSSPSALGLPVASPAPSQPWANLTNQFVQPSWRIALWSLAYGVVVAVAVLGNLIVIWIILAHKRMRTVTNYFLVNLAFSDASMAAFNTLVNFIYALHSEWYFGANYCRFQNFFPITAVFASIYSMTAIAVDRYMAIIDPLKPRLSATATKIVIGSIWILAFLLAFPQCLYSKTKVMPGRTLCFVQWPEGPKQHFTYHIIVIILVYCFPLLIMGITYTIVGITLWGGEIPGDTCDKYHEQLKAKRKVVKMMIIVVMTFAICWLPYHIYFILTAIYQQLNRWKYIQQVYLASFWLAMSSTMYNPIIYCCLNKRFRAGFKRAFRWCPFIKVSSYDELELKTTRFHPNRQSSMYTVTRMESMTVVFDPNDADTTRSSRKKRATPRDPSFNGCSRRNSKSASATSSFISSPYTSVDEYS
Procedure, shortened: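 Buffer: Tris-HCl 50 mM pH 7.4, BSA 0.1%, MnCl2 4 mM, phosphoramidon 1 μM. ~2.5 μg membrane/well, 90 min RT. NSB with SB222200 (10 μM). Vacuum filtration over 0.3% PEI-treated GF/C, cold Tris/BSA washes, scintillation count; duplicates, ≥2 experiments.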

Sequence of human NK1 receptor (P25103 whole entry): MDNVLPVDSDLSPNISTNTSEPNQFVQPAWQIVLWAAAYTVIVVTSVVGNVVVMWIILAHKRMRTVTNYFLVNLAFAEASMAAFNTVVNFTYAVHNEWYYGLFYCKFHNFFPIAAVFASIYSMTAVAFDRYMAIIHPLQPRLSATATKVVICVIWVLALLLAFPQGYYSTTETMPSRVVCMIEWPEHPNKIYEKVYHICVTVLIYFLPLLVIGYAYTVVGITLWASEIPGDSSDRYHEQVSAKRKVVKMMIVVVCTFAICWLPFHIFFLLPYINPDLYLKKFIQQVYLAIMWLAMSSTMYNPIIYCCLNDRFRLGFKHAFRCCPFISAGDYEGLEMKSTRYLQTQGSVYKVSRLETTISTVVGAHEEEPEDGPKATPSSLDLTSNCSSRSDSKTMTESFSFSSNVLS

SMILES: CC(=O)N[C@H]1CCN(c2cc(-c3ccccc3Cl)c(N(C)C(=O)C(C)(C)c3cc(C(F)(F)F)cc(C(F)(F)F)c3)cn2)C1 [Example 43, (S)-N-[6-(3-Acetylamino-pyrrolidin-1-yl)-4-(2-chloro-phenyl)-pyridin-3-yl]-2-(3,5-bis-trifluoromethyl-phenyl)-N-methyl-isobutyramide]
- Ki (human NK1 receptor): 2.4 nM
- Ki [1]: 35.5 nM

SMILES: CC(=O)N[C@@H]1CCN(c2cc(-c3ccccc3Cl)c(N(C)C(=O)C(C)(C)c3cc(C(F)(F)F)cc(C(F)(F)F)c3)cn2)C1 [Example 44, (R)-N-[6-(3-Acetylamino-pyrrolidin-1-yl)-4-(2-chloro-phenyl)-pyridin-3-yl]-2-(3,5-bis-trifluoromethyl-phenyl)-N-methyl-isobutyramide]
- Ki (human NK1 receptor): 0.631 nM
- Ki [1]: 15.5 nM

SMILES: CN(C(=O)C(C)(C)c1cc(C(F)(F)F)cc(C(F)(F)F)c1)c1cnc(N2CC[C@H](O)C2)cc1-c1ccccc1Cl [Example 46, (S)-2-(3,5-Bis-trifluoromethyl-phenyl)-N-[4-(2-chloro-phenyl)-6-(3-hydroxy-pyrrolidin-1-yl)-pyridin-3-yl]-N-methyl-isobutyramide]
- Ki (human NK1 receptor): 0.603 nM
- Ki [1]: 8.71 nM

SMILES: CN(C(=O)C(C)(C)c1cc(C(F)(F)F)cc(C(F)(F)F)c1)c1cnc(N2CC[C@@H](O)C2)cc1-c1ccccc1Cl [Example 47, (R)-2-(3,5-Bis-trifluoromethyl-phenyl)-N-[4-(2-chloro-phenyl)-6-(3-hydroxy-pyrrolidin-1-yl)-pyridin-3-yl]-N-methyl-isobutyramide]
- Ki (human NK1 receptor): 1.95 nM
- Ki [1]: 6.31 nM

SMILES: CN(C(=O)C(C)(C)c1cc(C(F)(F)F)cc(C(F)(F)F)c1)c1cnc(N2C[C@@H](O)[C@@H](O)C2)cc1-c1ccccc1Cl [Example 48, (3R,4S)-2-(3,5-Bis-trifluoromethyl-phenyl)-N-[4-(2-chloro-phenyl)-6-(3,4-dihydroxy-pyrrolidin-1-yl)-pyridin-3-yl]-N-methyl-isobutyramide]
- Ki (human NK1 receptor): 0.537 nM
- Ki [1]: 8.71 nM

SMILES: CN(C(=O)C(C)(C)c1cc(C(F)(F)F)cc(C(F)(F)F)c1)c1cnc(N2C[C@@H](O)[C@H](O)C2)cc1-c1ccccc1Cl [Example 49, (3R,4R)-2-(3,5-Bis-trifluoromethyl-phenyl)-N-[4-(2-chloro-phenyl)-6-(3,4-dihydroxy-pyrrolidin-1-yl)-pyridin-3-yl]-N-methyl-isobutyramide]
- Ki (human NK1 receptor): 0.479 nM
- Ki [1]: 14.8 nM

SMILES: CN(C(=O)C(C)(C)c1cc(C(F)(F)F)cc(C(F)(F)F)c1)c1cnc(N2CCC(O)CC2)cc1-c1ccccc1Cl [Example 51, 2-(3,5-bis-trifluoromethyl-phenyl)-N-[4′-(2-chloro-phenyl)-4-hydroxy-3,4,5,6-tetrahydro-2H-[1,2′]bipyridinyl-5′-yl]-N-methyl-isobutyramide]
- Ki (human NK1 receptor): 0.646 nM
- Ki [1]: 28.8 nM

SMILES: CN(C(=O)C(C)(C)c1cc(C(F)(F)F)cc(C(F)(F)F)c1)c1cnc(N2CCC(CO)CC2)cc1-c1ccccc1Cl [Example 52, 2-(3,5-Bis-trifluoromethyl-phenyl)-N-[4′-(2-chloro-phenyl)-4-hydroxymethyl-3,4,5,6-tetrahydro-2H-[1,2′]bipyridinyl-5′-yl]-N-methyl-isobutyramide]
- Ki (human NK1 receptor): 1.1 nM
- Ki [1]: 7.94 nM

SMILES: CN(CCO)c1cc(-c2ccccc2Cl)c(N(C)C(=O)C(C)(C)c2cc(C(F)(F)F)cc(C(F)(F)F)c2)cn1 [Example 54, 2-(3,5-Bis-trifluoromethyl-phenyl)-N-{4-(2-chloro-phenyl)-6-[(2-hydroxy-ethyl)-methyl-amino]-pyridin-3-yl}-N-methyl-isobutyramide]
- Ki (human NK1 receptor): 1 nM
- Ki [1]: 2.69 nM

SMILES: CCN(CCO)c1cc(-c2ccccc2Cl)c(N(C)C(=O)C(C)(C)c2cc(C(F)(F)F)cc(C(F)(F)F)c2)cn1 [Example 55, 2-(3,5-Bis-trifluoromethyl-phenyl)-N-{4-(2-chloro-phenyl)-6-[ethyl-(2-hydroxy-ethyl)-amino]-pyridin-3-yl}-N-methyl-isobutyramide]
- Ki (human NK1 receptor): 3.31 nM
- Ki [1]: 11.2 nM

SMILES: CCCN(CCO)c1cc(-c2ccccc2Cl)c(N(C)C(=O)C(C)(C)c2cc(C(F)(F)F)cc(C(F)(F)F)c2)cn1 [Example 56, 2-(3,5-Bis-trifluoromethyl-phenyl)-N-{4-(2-chloro-phenyl)-6-[(2-hydroxy-ethyl)-propyl-amino]-pyridin-3-yl}-N-methyl-isobutyramide]
- Ki (human NK1 receptor): 4.57 nM
- Ki [1]: 5.25 nM

SMILES: CCCCN(CCO)c1cc(-c2ccccc2Cl)c(N(C)C(=O)C(C)(C)c2cc(C(F)(F)F)cc(C(F)(F)F)c2)cn1 [Example 57, 2-(3,5-Bis-trifluoromethyl-phenyl)-N-[6-[butyl-(2-hydroxy-ethyl)-amino]-4-(2-chloro-phenyl)-pyridin-3-yl]-N-methyl-isobutyramide]
- Ki (human NK1 receptor): 10 nM
- Ki [1]: 27.5 nM

SMILES: CC(C)C[C@@H](CO)Nc1cc(-c2ccccc2Cl)c(N(C)C(=O)C(C)(C)c2cc(C(F)(F)F)cc(C(F)(F)F)c2)cn1 [Example 59, (S)-2-(3,5-Bis-trifluoromethyl-phenyl)-N-[4-(2-chloro-phenyl)-6-(1-hydroxymethyl-3-methyl-butylamino)-pyridin-3-yl]-N-methyl-isobutyramide]
- Ki (human NK1 receptor): 3.24 nM
- Ki [1]: 4.9 nM

SMILES: CN(C(=O)C(C)(C)c1cc(C(F)(F)F)cc(C(F)(F)F)c1)c1cnc(N[C@H]2CC[C@H](O)CC2)cc1-c1ccccc1Cl [Example 60, trans-2-(3,5-Bis-trifluoromethyl-phenyl)-N-[4-(2-chloro-phenyl)-6-(4-hydroxy-cyclohexylamino)-pyridin-3-yl]-N-methyl-isobutyramide]
- Ki (human NK1 receptor): 1.26 nM
- Ki [1]: 7.94 nM

SMILES: CC(=O)N1CCN(c2cc(-c3ccccc3Cl)c(N(C)C(=O)C(C)(C)c3cc(C(F)(F)F)cc(C(F)(F)F)c3)cn2)CC1 [Example 61, N-[6-(4-Acetyl-piperazin-1-yl)-4-(2-chloro-phenyl)-pyridin-3-yl]-2-(3,5-bis-trifluoromethyl-phenyl)-N-methyl-isobutyramide]
- Ki (human NK1 receptor): 0.417 nM
- Ki [1]: 14.1 nM

SMILES: CN(C(=O)C(C)(C)c1cc(C(F)(F)F)cc(C(F)(F)F)c1)c1cnc(N2CCN(C(=O)C3CC3)CC2)cc1-c1ccccc1Cl [Example 62, 2-(3,5-Bis-trifluoromethyl-phenyl)-N-[4-(2-chloro-phenyl)-6-(4-cyclopropanecarbonyl-piperazin-1-yl)-pyridin-3-yl]-N-methyl-isobutyramide]
- Ki (human NK1 receptor): 1.02 nM
- Ki [1]: 6.61 nM

SMILES: CC(=O)N1CCCN(c2cc(-c3ccccc3Cl)c(N(C)C(=O)C(C)(C)c3cc(C(F)(F)F)cc(C(F)(F)F)c3)cn2)CC1 [Example 63, N-[6-(4-Acetyl-[1,4]diazepan-1-yl)-4-(2-chloro-phenyl)-pyridin-3-yl]-2-(3,5-bis-trifluoromethyl-phenyl)-N-methyl-isobutyramide]
- Ki (human NK1 receptor): 1.82 nM
- Ki [1]: 1.17 nM

SMILES: CN(C(=O)C(C)(C)c1cc(C(F)(F)F)cc(C(F)(F)F)c1)c1cnc(N2CCC[C@H]2CN2CCCC2)cc1-c1ccccc1Cl [Example 64, (S)-2-(3,5-Bis-trifluoromethyl-phenyl)-N-[4-(2-chloro-phenyl)-6-(−2-pyrrolidin-1-ylmethyl-pyrrolidin-1-yl)-pyridin-3-yl]-N-methyl-isobutyramide]
- Ki (human NK1 receptor): 1 nM
- Ki [1]: 2.88 nM

SMILES: CN(C(=O)C(C)(C)c1cc(C(F)(F)F)cc(C(F)(F)F)c1)c1cnc(N2CC[C@H](N(C)C)C2)cc1-c1ccccc1Cl [Example 65, (S)-2-(3,5-Bis-trifluoromethyl-phenyl)-N-[4-(2-chloro-phenyl)-6-(3-dimethylamino-pyrrolidin-1-yl)-pyridin-3-yl]-N-methyl-isobutyramide]
- Ki (human NK1 receptor): 1.15 nM
- Ki [1]: 2.75 nM

SMILES: Cc1cc(F)ccc1-c1cc(NCCO)ncc1N(C)C(=O)C(C)(C)c1cc(C(F)(F)F)cc(C(F)(F)F)c1 [Example 68, 2-(3,5-Bis-trifluoromethyl-phenyl)-N-[4-(4-fluoro-2-methyl-phenyl)-6-(2-hydroxy-ethylamino)-pyridin-3-yl]-N-methyl-isobutyramide]
- Ki (human NK1 receptor): 1.45 nM
- Ki [1]: 3.24 nM

SMILES: CN(C(=O)C(C)(C)c1cc(C(F)(F)F)cc(C(F)(F)F)c1)c1cnc(NCCO)cc1-c1ccc(F)cc1Cl [Example 69, 2-(3,5-Bis-trifluoromethyl-phenyl)-N-[4-(2-chloro-4-fluoro-phenyl)-6-(2-hydroxy-ethylamino)-pyridin-3-yl]-N-methyl-isobutyramide]
- Ki (human NK1 receptor): 1.12 nM
- Ki [1]: 14.5 nM

SMILES: CN(C(=O)C(C)(C)c1cc(C(F)(F)F)cc(C(F)(F)F)c1)c1cnc(NCCO)cc1-c1ccc(Cl)cc1Cl [Example 70, 2-(3,5-Bis-trifluoromethyl-phenyl)-N-[4-(2,4-dichloro-phenyl)-6-(2-hydroxy-ethylamino)-pyridin-3-yl]-N-methyl-isobutyramide]
- Ki (human NK1 receptor): 2 nM
- Ki [1]: 4.07 nM

SMILES: C[C@H](O)CNc1cc(-c2ccc(Cl)cc2Cl)c(N(C)C(=O)C(C)(C)c2cc(C(F)(F)F)cc(C(F)(F)F)c2)cn1 [Example 71, (S)-2-(3,5-Bis-trifluoromethyl-phenyl)-N-[4-(2,4-dichloro-phenyl)-6-(2-hydroxy-propylamino)-pyridin-3-yl]-N-methyl-isobutyramide]
- Ki (human NK1 receptor): 2.04 nM
- Ki [1]: 9.12 nM
